Target: T1, Carnitine monooxygenase oxygenase/reductase subunit (Escherichia coli (strain K12), UniProt P0ABR7+P76254)
T1 sequence (P0ABR7 whole entry): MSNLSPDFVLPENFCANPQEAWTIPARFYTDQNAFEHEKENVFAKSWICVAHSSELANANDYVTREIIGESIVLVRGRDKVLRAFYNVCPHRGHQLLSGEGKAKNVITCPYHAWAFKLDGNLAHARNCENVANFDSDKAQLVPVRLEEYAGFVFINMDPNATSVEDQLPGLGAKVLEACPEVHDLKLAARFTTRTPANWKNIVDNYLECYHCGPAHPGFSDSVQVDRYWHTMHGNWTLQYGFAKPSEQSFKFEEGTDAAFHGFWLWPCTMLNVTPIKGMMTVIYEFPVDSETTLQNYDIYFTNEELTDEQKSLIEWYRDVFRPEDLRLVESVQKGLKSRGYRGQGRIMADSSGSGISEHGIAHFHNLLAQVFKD
T1 sequence (P76254 whole entry): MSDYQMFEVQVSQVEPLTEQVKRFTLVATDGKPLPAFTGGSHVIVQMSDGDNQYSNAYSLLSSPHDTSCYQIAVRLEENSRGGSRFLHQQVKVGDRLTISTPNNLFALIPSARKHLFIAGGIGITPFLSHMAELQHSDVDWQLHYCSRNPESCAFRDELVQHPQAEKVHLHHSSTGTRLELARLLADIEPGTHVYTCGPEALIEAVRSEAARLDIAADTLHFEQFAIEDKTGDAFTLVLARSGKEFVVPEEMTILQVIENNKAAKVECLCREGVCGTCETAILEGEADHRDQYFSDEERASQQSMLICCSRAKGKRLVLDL
Test: BCA Protein Assay
Excerpt: Escherichia coli BL21*DE3 pET30a-Ec yeaWX #1 (Ec YeaWX) strain was generated as described below. The contiguous Escherichia coli coding sequence yeaW (equivalent to uniprot ID P0ABR7.1 (YeaW) (SEQ ID NO: 2)) and yeaX (equivalent to uniprot ID P76254.1 (YeaX) (SEQ ID NO: 3)) were PCR amplified from Escherichia coli strain K-12 substr. BW25113 genomic DNA. PCR primers (YeaW_Nde I_fwd2-SEQ ID NO: 4; YeaX_rev2-SEQ ID NO: 5) were designed to create a 5′ NdeI restriction site including the ATG start codon of yeaW and create a PstI restriction site just 3′ of the yeaX TAG stop codon.The bacteria were grown aerobically in 50 mL LB broth (Difco #244620; 10 g/L Tryptone, 5 g/L yeast extract, 10 g/L NaCl, 50 μg/mL kanamycin), in a 500 mL Erlenmeyer flask. The cultures were inoculated from glycerol stock of BL21*DE3 pET30a-Ec yeaWX #1 strain. Strains were cultured all day at 37° C. with 250 rpm shaking. Two 300 mL Minimal M9 Medium (6 g/L Na2HPO4, 3 g/L KH2PO4, 0.5 g/L NaCl, 1 g/L NH4Cl, 0.1 mM CaCl2, 1 mM MgSO4, 0.2% Dextrose, 1 mg/L Thiamine, 50 μg/mL kanamycin), in 1 L Erlenmeyer flasks, were inoculated with 5 mL of the LB broth day culture and cultured overnight at 37° C. with 250 rpm shaking. The overnight cultures were used to inoculate twelve 1 L cultures of Minimal M9 media in 2.8 L fluted Erlenmeyer flasks to an OD 600 nm of 0.05 (typically approximately 28 mLs), which were grown at 37° C. with 250 rpm shaking until an OD600 of approximately 0.4 was reached. Expression of YeaWX was induced with 1 mM IPTG and the induced cultures were further grown overnight at 37° C. with 250 rpm shaking. The biomass was pelleted by centrifugation at 6000×g for 12 minutes at 4° C. The cell pellet was suspended in 240 mL of ice-cold 1× Phosphate Buffered Saline (Ca2+ and Mg2+ free). […] Glycerol was added to the centrifuged lysate supernatant at a final concentration of 15% A protein concentration of the centrifuged lysate supernatant was determined by a BCA Protein Assay Kit (Pierce #23225), typically in the 2.5 to 4.5 mg/ml range. […]

SMILES | IC50 [µM]
CCOC(=O)C[N+](CC)(CC)CCCN=C=S [US10213407, ID 3] | 220
CCOC(=O)C[N+](C)(C)CCN=C=S [US10213407, ID 4] | 300
C[N+](C)(CC#N)CCN=C=S [US10213407, ID 8] | 210
